From publication PMC11596957, “Biological Characteristics of a Novel Bibenzyl Synthase (DoBS1) Gene from Dendrobium officinale Catalyzing Dihydroresveratrol Synthesis” (Molecules, 2024)

Biological target: T1, DoBS1 (bibenzyl synthase) (Dendrobium officinale, UniProt Z9NEY1S5B3)
T1 construct: type III PKS family known as homodimer
T1 sequence (Z9NEY1S5B3 1-390): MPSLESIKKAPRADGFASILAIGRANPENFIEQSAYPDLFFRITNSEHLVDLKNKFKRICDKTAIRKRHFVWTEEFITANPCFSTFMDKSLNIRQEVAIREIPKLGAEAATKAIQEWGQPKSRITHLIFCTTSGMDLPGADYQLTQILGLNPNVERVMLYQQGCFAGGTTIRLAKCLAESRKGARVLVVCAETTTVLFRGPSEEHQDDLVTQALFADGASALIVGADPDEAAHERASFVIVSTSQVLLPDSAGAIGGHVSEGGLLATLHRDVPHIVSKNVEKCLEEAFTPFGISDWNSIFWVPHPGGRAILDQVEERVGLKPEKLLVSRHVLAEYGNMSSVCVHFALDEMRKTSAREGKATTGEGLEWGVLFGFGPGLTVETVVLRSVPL
Experiment: HPLC of dihydroresveratrol formation, Michaelis-Menten fit
Format: biochemical
Conditions: co-substrate malonyl-CoA (2.5 mM in the described assay), 37 °C, 30 min; text gives the Km 'for DHR' production, Figure 7 legend names p-coumaroyl-CoA as varied substrate; unit printed as mmol
Source text: HPLC of dihydroresveratrol formation, Michaelis-Menten fit on DoBS1 (bibenzyl synthase) | Kinetic analysis of DoBS1 toward p-coumaroyl-CoA

Km: 0.30 ± 0.08 mmol
SMILES: CC(C)(COP(=O)(O)OP(=O)(O)OC[C@H]1O[C@@H](n2cnc3c(N)ncnc32)[C@H](O)[C@@H]1OP(=O)(O)O)[C@@H](O)C(=O)NCCC(=O)NCCSC(=O)/C=C/c1ccc(O)cc1 [p-coumaroyl-CoA]
